Results: US7326721B2 (Hypnion, Inc., priority 2003, dated 2008)
“And” between values parts separate entries of the source, which are not always exact repeats. Identical values can stand only once. Like-named read-outs stand apart in the source and are kept apart here.

What was measured:
Crl:CD-I(ICR)BR mice = assay: Acetic acid-induced abdominal spasm test in the mouse; type: in vivo
Experimental: (§1) The objective of this example was to determine the analgesic activity of HY-2901 (Also referred to herein as Compound 49a) following oral administration. Analgesic activity was assessed abdominal spasm test in the rat and mouse. Analgesic activity is also assessed using the tail clip test in the mouse, tail flick test in the rat, Randall-Selitto test in the rat and comparisons are made with a vehicle control group. Reference compounds ASA (acetylsalicylic acid) and morphine are also included for comparison.
(§2) The tail clip and tail flick test provide useful information about the central analgesic activity of the test article. The Randall-Selitto test provides information on the compound's ability to modify a hyperalgesic state and the abdominal spasm test provides information on the peripheral analgesic activity of the test article. The test article is administered by oral gavage, this being the intended clinical route of administration. The dose levels employed are expected to encompass the efficacy dose and provide an adequate safety margin.
(§3) All formulations were prepared on each day of dosing. The test article (HY-2901) was formulated in 0.25% (w/v) MC at the highest concentration required. Lower doses were obtained by serial dilution of the highest concentration using 0.25% (w/v) MC. The reference compound, acetylsalicylic acid, was formulated in 0.25% (w/v) MC at the required concentrations. Brewer's yeast was formulated in water for injection at the required concentration. Acetic acid was diluted with water for injection to provide the required concentration for administration.
(§4) An adequate number of male Crl:CD-I(ICR)BR mice and Wistar rats were obtained from Charles River (UK) Ltd., Margate, Kent. The mice were approximately 4 weeks of age and weigh between 18 and 22 g on arrival. The rats were approximately 5 weeks of age and weigh between 150 and 170 g on arrival. The age and weight of the animals at the start of the study was documented in the raw data and final report,
Each animal received a single administration of vehicle, test article or reference compound by oral gavage, using a constant dose volume 10 mL/kg. Individual dose volumes were based on individual body weights obtained on the day of dosing.
Forty-five minutes following oral administration each animal received a 0.25 mL intraperitoneal injection of 0.5% acetic acid. Animals were immediately placed into individual observation chambers and the number of abdominal spasms elicited over the subsequent 25-minute period was recorded.

Wistar rats = assay: Acetic acid-induced abdominal spasm test in the rat; type: in vivo; conditions: oral 100 mg/kg
Experimental: as §1, §2, §3, §4
Each animal received a single administration of vehicle, test article or reference compound by oral gavage, using a constant dose volume […]. Individual dose volumes were based on individual body weights obtained on the day of dosing.
Forty-five minutes following oral administration each animal received a 1 mL intraperitoneal injection of 1% acetic acid. Animals were immediately placed into individual observation chambers and the number of abdominal spasms elicited over the subsequent 25-minute period was recorded.

M2 muscarinic receptor [1] = target: T1, M2 muscarinic receptor (Homo sapiens, UniProt P08172); assay: Muscarinic M2 binding assay; set-up: purchased PerkinElmer, Inc., Wellesley, Mass; host or cells: CHO cells; conditions: read-out: Ki M2
T1 sequence (P08172 1-466): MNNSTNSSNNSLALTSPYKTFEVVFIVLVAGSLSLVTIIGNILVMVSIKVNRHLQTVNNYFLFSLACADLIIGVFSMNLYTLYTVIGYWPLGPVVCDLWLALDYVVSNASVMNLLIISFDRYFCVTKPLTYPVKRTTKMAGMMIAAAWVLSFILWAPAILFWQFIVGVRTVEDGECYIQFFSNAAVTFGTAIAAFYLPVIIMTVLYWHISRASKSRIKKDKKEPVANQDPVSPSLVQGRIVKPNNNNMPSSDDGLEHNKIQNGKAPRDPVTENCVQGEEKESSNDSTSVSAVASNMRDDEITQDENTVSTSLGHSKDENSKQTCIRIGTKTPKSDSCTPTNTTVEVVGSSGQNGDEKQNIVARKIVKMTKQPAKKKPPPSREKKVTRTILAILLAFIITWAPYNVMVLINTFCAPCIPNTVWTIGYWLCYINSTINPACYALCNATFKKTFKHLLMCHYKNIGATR

M1 muscarinic receptor [2] = target: T2, M1 muscarinic receptor (Homo sapiens, UniProt P11229); assay: Muscarinic M1 binding assay ([3H]-scopolamine, N-methyl chloride); set-up: purchased PerkinElmer, Inc., Wellesley, Mass; host or cells: CHO cells; conditions: read-out: Ki M1
T2 sequence (P11229 1-460): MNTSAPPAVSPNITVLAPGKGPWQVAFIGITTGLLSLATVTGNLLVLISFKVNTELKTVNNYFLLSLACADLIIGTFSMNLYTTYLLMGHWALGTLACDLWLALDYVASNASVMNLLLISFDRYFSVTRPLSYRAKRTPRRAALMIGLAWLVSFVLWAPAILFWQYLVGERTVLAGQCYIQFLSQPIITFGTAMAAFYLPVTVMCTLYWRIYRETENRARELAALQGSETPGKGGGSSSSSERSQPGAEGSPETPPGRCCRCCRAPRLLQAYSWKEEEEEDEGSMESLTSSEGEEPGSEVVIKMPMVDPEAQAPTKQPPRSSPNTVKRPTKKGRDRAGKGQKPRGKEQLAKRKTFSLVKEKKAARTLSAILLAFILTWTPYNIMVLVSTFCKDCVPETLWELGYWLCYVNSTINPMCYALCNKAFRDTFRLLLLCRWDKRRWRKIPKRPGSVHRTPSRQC

M3 muscarinic receptor = M3 muscarinic receptor (Homo sapiens, UniProt P20309); assay: Muscarinic M3 binding assay; set-up: purchased PerkinElmer, Inc., Wellesley, Mass; host or cells: CHO cells; conditions: read-out: Ki M3
hERG = hERG (Homo sapiens, UniProt Q12809)
H1 histamine receptor = target: T3, H1 histamine receptor (Bos taurus, UniProt P30546); assay: Histamine H1 competitive binding assay ([3H]pyrilamine); set-up: species or system bovine
T3 construct: the receptors were obtained from bovine cerebellar membrane tissue; from tissue; host or cells: bovine cerebellar membranes

adult male Wistar rats = assay: SCORE-2000 sleep-wakefulness, locomotor activity and body temperature monitoring; type: in vivo, rat
male Wistar rats = type: in vivo
Experimental: The Irwin screen can provide useful information on potential side effects of compounds on general physiological and behavioural functions. The screen was conducted by administering the test compounds orally in 0.25% aqueous methylcellulose using male Wistar rats, a frequently used species in such studies and for which background data are readily available.
The Irwin screen tests for numerous parameters in animals that have been administered the test compound. For example, the screen can include: in-cage effects, e.g., dispersion, respiratory rate, locomotor activity, restlessness, fighting, alertness, apathy, and exophthalmus; in-arena effects, e.g., transfer arousal, spatial locomotion, ptosis, startle, tail elevation, piloerection, touch escape, positional passivity, catalepsy, tighting reflex, visual placing, grip strength, pinna, corneal, pain response, and wire manoeuvre; parameters observed in handling, e.g., cyanosis, cutaneous blood flow, hypothermia, body tone, pupil size, light-pupil response, lacrimation, grooming, red staining, salivation, and provoked biting; general scores e.g., fearfulness, irritability, abnormal gait, abnormal body carriage, tremors, twitches, convulsions, bizarre behaviour, writhing, vocalisation, diarrhoea, number of defaecations, number of urinations, moribund, lethality, and abnormalities detected. Further details can be found in Irwin, S; Comprehensive observational assessment: I a. A systematic, quantitative procedure for assessing the behavioural and physiological state of the mouse.
Irwin screening of the disclosed sleep-inducing agents was performed by Covance (Princeton, N.J.) according to Irwin, above; Covance Standard Operating Procedure (current revision of SOP PHARM 8.10); relevant regulatory authority guidelines ICH (International Committee for Harmonization) Guideline (Topic S7A; CPMP/ICH/539/00) on Safety Pharmacology Studies for human pharmaceuticals (November 2000); and all procedures carried out on live animals were subject to the provisions of United Kingdom Law, in particular the Animals (Scientific Procedures) Act, 1986. which obliges all UK laboratories to maintain a local ethical review process to ensure that all animal use in the establishment is carefully considered and justified; that proper account is taken of all possibilities for reduction, refinement or replacement and that high standards of accommodation and care are achieved.
All test compound formulations were prepared on the day of dosing by Covance Harrogate Dispensary. The test compounds were formulated in 0.25% aqueous methylcellulose at the highest concentration required. Lower doses were obtained by serial dilution of the highest concentration using 0.25% aqueous methylcellulose. Dose levels are expressed in terms of the amount of test compound administered without regard to purity or active content. All formulations were stored at room temperature (nominally 10 to 30° C.) in sealed containers and protected from light.
An adequate number of male Wistar (Crl:WI(Glx/BRL/Han) BR:WH) rats were obtained from Charles River Ltd. (Margate, Kent, United Kingdom). The rats were approximately 5 weeks of age and weighed between 150 and 170 g on arrival. The animals were housed in groups of no more than six in polypropylene cages (33×15×13 cm) or (45×28×20 cm) with solid floors and Grade 10 woodflakes (Datesand Ltd., Cheshire, United Kingdom) as bedding. The cages were cleaned and dried before use. Aspen chew blocks were placed within the cages as a form of environmental enrichment. Routinely, holding rooms were maintained within acceptable limits for temperature and relative humidity (nominally 19 to 25° C. and 40% to 70%, respectively). These rooms were illuminated by fluorescent light for 12 hours out of each 24 hour cycle and designed to receive at least 15 fresh air changes per hour. […]

human H1 receptor = human H1 receptor (Homo sapiens, UniProt P35367); assay: H1(hR) binding (Table 28)
Experimental: (§5) The comparative data is shown in Table 28, unless otherwise noted, binding was measured with the bovine receptors, H1(hR) is the human H1 receptor, 5HT2a (h) is the human 5HT2a receptor. Binding numbers are presented in nM values.

M2 muscarinic receptor [3] = target: T1, M2 muscarinic receptor; assay: Muscarinic M2 binding assay
[4] = target: Dopamine, D1 (human recombinant) (UniProt P14416); assay: Dopamine D2 binding assay (printed as D1 in b555)
Experimental: In vitro binding assays are used to determine H1 binding (i.e., primary target binding) and M1, M2 and M3 binding (i.e., off target binding). […] Similar assays are performed with H1 and dopamine receptors (D1 and D2), and with H1 and adrenergic receptors (α1 and α2).
Dopamine, D1 (human recombinant) binding assay was performed according to published procedures. See, e.g., Jarvie, et al. J. Recept Res., 13(1–4): 573–90 (1993); and Gundlach, et al. Life Sciences, 35(19): 1981–8 (1984) with modifications

Dopamine, D1 = Dopamine, D1 (UniProt P21728); assay: Dopamine, D1 (human recombinant) binding assay
[5] = target: Adrenergic, Alpha 2, Non-selective; assay: Table 12 panel: Adrenergic, Alpha 2; type: binding; conditions: read-out: α2 binding
[6] = target: Adrenergic, Alpha 1, Non-selective; assay: Table 12 panel: Adrenergic, Alpha 1; type: binding; conditions: read-out: α1 binding
5HT2a (rat) = 5HT2a (rat) (Rattus norvegicus, UniProt P14842); assay: 5HT2a (rat) binding (Table 28)
Experimental: as §5

human 5HT2a receptor = human 5HT2a receptor (Homo sapiens, UniProt P28223); assay: 5HT2a (h) binding (Table 28)
M1 muscarinic receptor [7] = target: T2, M1 muscarinic receptor; assay: Muscarinic M1 binding assay ([3H]-scopolamine, N-methyl chloride)

hERG, sequence (Q12809 whole entry): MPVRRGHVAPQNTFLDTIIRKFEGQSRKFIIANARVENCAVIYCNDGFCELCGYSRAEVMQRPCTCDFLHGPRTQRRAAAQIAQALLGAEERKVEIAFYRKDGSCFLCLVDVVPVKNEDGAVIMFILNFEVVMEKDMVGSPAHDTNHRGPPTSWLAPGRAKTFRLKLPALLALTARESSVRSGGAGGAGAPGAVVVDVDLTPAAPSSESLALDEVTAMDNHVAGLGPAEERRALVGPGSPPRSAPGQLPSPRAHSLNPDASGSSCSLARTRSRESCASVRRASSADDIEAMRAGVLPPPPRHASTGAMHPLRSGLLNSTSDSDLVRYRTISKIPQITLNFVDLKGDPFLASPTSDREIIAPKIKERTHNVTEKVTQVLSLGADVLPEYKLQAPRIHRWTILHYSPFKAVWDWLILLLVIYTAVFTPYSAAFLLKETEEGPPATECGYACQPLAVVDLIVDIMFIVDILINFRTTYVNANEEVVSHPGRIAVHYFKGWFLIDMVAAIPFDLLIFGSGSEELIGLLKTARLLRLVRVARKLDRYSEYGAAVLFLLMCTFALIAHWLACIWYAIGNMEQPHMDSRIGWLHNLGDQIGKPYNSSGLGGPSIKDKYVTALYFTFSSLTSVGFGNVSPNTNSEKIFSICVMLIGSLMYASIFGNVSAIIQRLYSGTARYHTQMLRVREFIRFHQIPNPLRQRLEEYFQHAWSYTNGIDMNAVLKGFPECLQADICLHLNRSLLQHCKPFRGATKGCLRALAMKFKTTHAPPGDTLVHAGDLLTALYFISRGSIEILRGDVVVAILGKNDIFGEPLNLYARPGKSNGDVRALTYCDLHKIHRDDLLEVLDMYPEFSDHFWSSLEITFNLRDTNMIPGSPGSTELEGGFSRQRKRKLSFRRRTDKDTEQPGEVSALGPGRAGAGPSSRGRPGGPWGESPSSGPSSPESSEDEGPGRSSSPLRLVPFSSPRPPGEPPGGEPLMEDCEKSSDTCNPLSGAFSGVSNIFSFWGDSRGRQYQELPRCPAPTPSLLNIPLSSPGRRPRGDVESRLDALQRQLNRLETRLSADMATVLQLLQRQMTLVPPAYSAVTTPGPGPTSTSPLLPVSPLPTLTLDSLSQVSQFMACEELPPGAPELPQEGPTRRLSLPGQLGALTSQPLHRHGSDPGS
T3 sequence (P30546 whole entry): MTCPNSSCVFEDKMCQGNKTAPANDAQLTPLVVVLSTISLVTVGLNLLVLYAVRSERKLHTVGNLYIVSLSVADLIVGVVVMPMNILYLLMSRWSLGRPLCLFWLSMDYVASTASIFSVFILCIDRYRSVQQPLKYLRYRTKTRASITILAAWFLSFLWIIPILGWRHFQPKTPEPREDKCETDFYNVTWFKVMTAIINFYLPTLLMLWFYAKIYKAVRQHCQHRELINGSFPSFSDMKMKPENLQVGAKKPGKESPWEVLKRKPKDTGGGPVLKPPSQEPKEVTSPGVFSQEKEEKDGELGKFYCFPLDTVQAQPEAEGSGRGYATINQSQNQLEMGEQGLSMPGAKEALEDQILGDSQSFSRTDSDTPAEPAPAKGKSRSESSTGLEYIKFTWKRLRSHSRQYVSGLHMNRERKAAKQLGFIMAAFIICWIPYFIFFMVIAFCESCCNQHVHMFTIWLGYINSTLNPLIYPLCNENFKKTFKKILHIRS
M3 muscarinic receptor, sequence (P20309 whole entry): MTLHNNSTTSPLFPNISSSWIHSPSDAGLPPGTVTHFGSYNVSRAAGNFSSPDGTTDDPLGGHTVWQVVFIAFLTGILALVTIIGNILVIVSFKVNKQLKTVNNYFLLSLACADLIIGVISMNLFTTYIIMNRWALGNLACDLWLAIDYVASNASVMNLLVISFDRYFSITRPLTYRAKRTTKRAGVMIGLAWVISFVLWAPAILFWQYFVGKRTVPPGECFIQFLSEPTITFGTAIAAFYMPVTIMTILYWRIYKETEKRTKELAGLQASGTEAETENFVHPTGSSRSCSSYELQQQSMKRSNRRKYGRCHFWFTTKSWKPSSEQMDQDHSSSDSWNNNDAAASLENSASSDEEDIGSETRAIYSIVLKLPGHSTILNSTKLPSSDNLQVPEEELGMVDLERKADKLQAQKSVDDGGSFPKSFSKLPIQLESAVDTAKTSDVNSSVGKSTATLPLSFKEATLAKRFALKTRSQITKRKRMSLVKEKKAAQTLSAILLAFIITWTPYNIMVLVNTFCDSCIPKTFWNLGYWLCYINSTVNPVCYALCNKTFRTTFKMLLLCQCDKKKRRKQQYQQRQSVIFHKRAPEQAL
human H1 receptor, sequence (P35367 whole entry): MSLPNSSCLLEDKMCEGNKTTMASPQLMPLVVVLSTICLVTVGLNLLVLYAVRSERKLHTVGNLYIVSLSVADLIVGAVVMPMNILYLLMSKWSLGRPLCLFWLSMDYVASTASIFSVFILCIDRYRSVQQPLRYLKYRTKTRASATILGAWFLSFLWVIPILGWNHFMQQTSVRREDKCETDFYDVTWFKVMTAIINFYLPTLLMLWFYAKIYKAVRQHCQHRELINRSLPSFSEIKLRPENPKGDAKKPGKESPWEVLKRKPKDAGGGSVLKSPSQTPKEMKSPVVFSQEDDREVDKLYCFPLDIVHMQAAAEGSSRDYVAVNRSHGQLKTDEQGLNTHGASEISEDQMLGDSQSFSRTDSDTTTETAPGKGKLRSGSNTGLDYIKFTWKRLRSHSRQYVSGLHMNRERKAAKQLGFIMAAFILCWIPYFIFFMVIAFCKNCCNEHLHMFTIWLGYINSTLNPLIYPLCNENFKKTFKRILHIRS
human 5HT2a receptor, sequence (P28223 whole entry): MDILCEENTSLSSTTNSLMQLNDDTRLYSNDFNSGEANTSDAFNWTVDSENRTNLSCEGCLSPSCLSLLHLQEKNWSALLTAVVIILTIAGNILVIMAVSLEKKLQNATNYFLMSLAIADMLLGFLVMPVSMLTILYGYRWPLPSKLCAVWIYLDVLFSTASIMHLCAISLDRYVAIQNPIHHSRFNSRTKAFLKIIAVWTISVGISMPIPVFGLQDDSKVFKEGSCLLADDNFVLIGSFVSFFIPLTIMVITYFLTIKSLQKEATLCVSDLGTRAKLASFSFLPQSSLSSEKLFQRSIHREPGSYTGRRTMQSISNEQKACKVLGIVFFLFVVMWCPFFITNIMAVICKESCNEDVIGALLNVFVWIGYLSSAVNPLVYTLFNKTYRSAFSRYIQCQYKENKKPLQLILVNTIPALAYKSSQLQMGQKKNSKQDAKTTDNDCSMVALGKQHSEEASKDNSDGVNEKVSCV
5HT2a (rat), sequence (P14842 whole entry): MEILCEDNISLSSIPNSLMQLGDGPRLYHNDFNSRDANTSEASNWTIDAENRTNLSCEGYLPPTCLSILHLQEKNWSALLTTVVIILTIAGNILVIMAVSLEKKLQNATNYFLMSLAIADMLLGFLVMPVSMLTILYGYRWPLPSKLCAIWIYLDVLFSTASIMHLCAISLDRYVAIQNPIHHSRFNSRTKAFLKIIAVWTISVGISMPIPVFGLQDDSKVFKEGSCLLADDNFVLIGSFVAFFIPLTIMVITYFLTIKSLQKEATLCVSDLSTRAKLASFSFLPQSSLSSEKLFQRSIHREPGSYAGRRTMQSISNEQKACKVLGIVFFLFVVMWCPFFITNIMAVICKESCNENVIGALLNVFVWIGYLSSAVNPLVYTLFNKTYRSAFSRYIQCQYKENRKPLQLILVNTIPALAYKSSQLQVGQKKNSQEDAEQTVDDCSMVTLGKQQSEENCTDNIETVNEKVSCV

CC(=O)Oc1ccccc1C(=O)O [ASA, acetylsalicylic acid, reference compound]
Group mean (±sd) number of abdominal spasms recorded in a 25 minute period (Crl:CD-I(ICR)BR mice; oral 100 mg/kg): 29 ± 29.9
Number of abdominal spasms recorded in a 25-minute period (Crl:CD-I(ICR)BR mice; oral, 100 mg/kg, individual animal data (animals 25-30)): 17 and 8 and 45 and 82 and 1 and 23
Group mean (=sd) number pf abdominal spasms recorded in a 25-minute period (Wistar rats): 1 ± 2.3
Number of abdominal spasms recorded in a 25-minute period, individual animal data (Wistar rats; 100 mg/kg): 0 (3×) and 1 (2×) and 6

CC(C)(CN1CCC(=C2c3ccc(Cl)cc3COc3ccccc32)CC1)C(=O)O [Compound 51a]
Ki (M2 muscarinic receptor [1]): > 10000 nM
Ki (M1 muscarinic receptor [2]): > 10000 nM
Ki (M3 muscarinic receptor): > 10000 nM
hERG at micromolar (% blocking of the hERG channel) (hERG; human, pH 7.4): 40.6%
Ki (H1 histamine receptor; read-out: Ki H1): 26.4 nM
LUSB (adult male Wistar rats; dose 3 mg/kg oral at CT-18): 8.8 min
NREM (adult male Wistar rats; dose 3 mg/kg oral at CT-18): 32.1 min
LUSB (adult male Wistar rats; dose 10 mg/kg oral at CT-18): 18.2 min
NREM (adult male Wistar rats; dose 10 mg/kg oral at CT-18): 60.3 min
LUSB (adult male Wistar rats; dose 30 mg/kg oral at CT-18): 6.3 min
NREM (adult male Wistar rats; dose 30 mg/kg oral at CT-18): 49.3 min
Irwin at mg/kg dose (male Wistar rats; 10 mg/kg oral): clean
Irwin at mg/kg dose (male Wistar rats; 30 mg/kg oral): some side effects
Irwin at mg/kg dose (male Wistar rats; 100 mg/kg oral): lethality

COc1ccc2c(c1)COc1ccc(F)cc1C2=C1CCN(CCC(=O)O)CC1 [Compound 10518]
Ki (human H1 receptor): 35 nM
Ki (M2 muscarinic receptor [3]): > 10000 nM
Ki [4]: > 10000 nM
Ki (Dopamine, D1): > 10000 nM
Ki [5]: > 10000 nM
HERG (hERG; human, 10 µM, pH 7.4): 3.90%
Ki (H1 histamine receptor; bovine receptor, read-out: H1 binding): 52.3 nM
Ki [6]: 2850 nM
Ki (5HT2a (rat)): 197 nM
Ki (human 5HT2a receptor): 422 nM
LUSB 3 mg/kg (adult male Wistar rats; 3 mg/kg): 6.7 ± 2.3
LUSB 10 mg/kg (adult male Wistar rats; 10 mg/kg): 7.9 ± 1.7
NREM cumul. 10 mpk (adult male Wistar rats; 10 mpk): 46 ± 7
Ki (M1 muscarinic receptor [7]): > 10000 nM

O=C(O)CCCN1CCC(=C2c3ccccc3COc3ccccc32)CC1 [Compound 70e]
Ki (M2 muscarinic receptor [1]): > 10000 nM
Ki (M1 muscarinic receptor [2]): > 10000 nM
Ki (M3 muscarinic receptor): > 10000 nM
hERG at micromolar (% blocking of the hERG channel) (hERG): 2.7% @ 1
Ki (H1 histamine receptor; read-out: Ki H1): 136 nM
LUSB (adult male Wistar rats; dose 3 mg/kg oral at CT-18): 6.6 min
NREM (adult male Wistar rats; dose 3 mg/kg oral at CT-18): 25.7 min
LUSB (adult male Wistar rats; dose 10 mg/kg oral at CT-18): 6.6 min
NREM (adult male Wistar rats; dose 10 mg/kg oral at CT-18): 27.4 min
LUSB (adult male Wistar rats; dose 30 mg/kg oral at CT-18): 15 min
NREM (adult male Wistar rats; dose 30 mg/kg oral at CT-18): 43.3 min
Irwin at mg/kg dose (male Wistar rats; 30 mg/kg oral): clean
Irwin at mg/kg dose (male Wistar rats; 100 mg/kg oral): some side effects
Irwin at mg/kg dose (male Wistar rats; rat, in vivo): 10, 30 clean; 100 some side effects
